Test results as given in patent US20180220646A1, “AMS-Free Adjuvants for Water Conditioning and Agricultural Formulations” (RHODIA OPERATIONS, priority 2017, published 2018).

Tests used:
Experiment in all cases: Field plot weed control study, % control
Assay type in all cases: in vivo
Conditions in all cases: adjuvant use rate 1.0% wt/wt with glyphosate baseline
Zea mays (ZEAMX) = system: Zea mays (ZEAMX)
Description: (§1) The efficacy evaluation was conducted by a field plot study with selected weeds. They are Linum sp. (AMSS), Amaranthus sp. (LIUSS), Helianthus sp. (HELSS), and Zea mays (ZEAMX). The field plot size is 400 square feet (10×40 ft), with three replications arranged in a randomized complete block design. Soil description: 15.3% sand, 53.9% silt, and 30.8% clay; Organic material content: 6.2%; pH: 7.5.
(§2) Product application was made using a backpack spray device, Blackout. Operation pressure: 40 psi. Nozzle: TT 11001; Spray volute: 8.5 gallon/acre.
(§3) Environmental condition during application: Air temperature—87 degree F.; Relative humidity—39%; Wind—NE, 5 mph; Soil temperature—71 degree F.; Cloud cover—50%.
(§4) Weeds were evaluated for percent control at 14 days and 28 days following application.
(§5) Sliding rating scale used: 0 indicating no control, up to 100 indicating complete control of weed species as compared to the untreated check.

Amaranthus sp. (LIUSS) = system: Amaranthus sp. (LIUSS)
Description: as §1, §2, §3, §4, §5

Helianthus sp. (HELSS) = system: Helianthus sp. (HELSS)
Description: as §1, §2, §3, §4, §5

Linum sp. (AMSS) = system: Linum sp. (AMSS)
Description: as §1, §2, §3, §4, §5

Molecule	% Control at 14 days ZEAMX (Zea mays (ZEAMX)) [%]	% Control at 28 days ZEAMX (Zea mays (ZEAMX)) [%]	% Control at 14 days LIUSS (Amaranthus sp. (LIUSS)) [%]	% Control at 28 days LIUSS (Amaranthus sp. (LIUSS)) [%]	% Control at 14 days HELSS (Helianthus sp. (HELSS)) [%]	% Control at 28 days HELSS (Helianthus sp. (HELSS)) [%]	% Control at 14 days AMSS (Linum sp. (AMSS)) [%]	% Control at 28 days AMSS (Linum sp. (AMSS)) [%]
C[N+](C)(C)C.C[N+](C)(C)C.O=S(=O)([O-])[O-] [Tetramethylamine Sulfate]	56.7	85	46.7	46.7	86.7	85	51.7	58.3
Choline Citrate	68.3	90	71.7	86.7	89.3	95	61.7	63.3
Choline etidronic acid	65	66.7	76	80	91.7	84	70	70
Choline salt of Sulfuric Acid	55	83.3	40	43.3	88.3	95	70	70
